{"source": "patent US20160030364A1", "about": "“Therapeutic Compositions and Uses Thereof” (MANUKA HEALTH NEW ZEALAND LIMITED, priority 2013, published 2016)", "tested_on": "human colorectal adenocarcinoma cells (DLD-1)", "assay": "MTT proliferation assay, DLD-1 (Examples 1-2)", "assay_type": "cell-based", "experimental": "(§1) Test samples shown below in Table 2 were assessed for their ability to modulate the viability and proliferation of human colorectal adenocarcinoma cells (DLD-1) as assessed by the MTT assay. A positive control, 5-fluorouracil (5-FU) was included in addition to an unsupplemented cell control (negative control) in the study. The test samples were obtained by fractionation of propolis tincture.\nas §1, with “study.” for “study. The test samples were obtained by fractionation of propolis tincture.”\nHuman colorectal adenocarcinoma epithelial cell lines were revived from cryostorage and cultured in the presence of the test and reference samples. The culture conditions for the cells were those described by the supplier of the cells (ATCC). An MTT assay was then performed on the cultures to determine the effect of the samples on the cell proliferation.\nWorking solutions were prepared by dissolving the test fractions in 15% ethanol (ETOH)/HBSS to a concentration of 2 mg/mL solids.\n• 1. Human colorectal adenocarcinoma cells (ATCC CCI-221, DLD-1). • 2. Penicillin-streptomycin solution: 10000 units/mL penicillin, 10 mg/mL streptomycin in 0.9% NaCl (Sigma Cat #P-0781). Stored at −20° C. • 3. DMEM culture medium (Invitrogen Cat #12100-046) Stored at −20° C. • 4. Trypsin-EDTA solution: 0.25% Trypsin/EDTA, Invitrogen Cat#15400054 (×10 in stock). • 5. Phosphate buffered saline (PBS) (Prepared by TBL). • 6. Hanks Balanced Salt Solution (HBSS). (GIBCO Cat No. 14185-052). Stored at 4° C. • 7. Foetal Bovine Serum (GIBCO Cat #10091-148). Stored at −20° C. • 8. MTT Reagent: 100 mg/vial, (SIGMA Cat. No. M-2128) dissolved in PBS at 10 mg/mL and stored at −20° C. 5 mg/mL MTT solution were prepared in PBS and stored at 4° C. as working solution. • 9. MTT lysis buffer: 10% sodium dodecyl sulphate (SDS)/45% Dimethyl Formamide (20 g SDS was dissolved in 100 mL of double-distilled water (DDW), and 90 mL of Dimethyl Formamide added to the SDS solution). The pH was adjusted to 4.7 by glacial acetic acid, and DDW added up to a final volume of 200 mL. • 10. 5-Fluorouracil (5-FU), (Sigma Cat. No. F-6627). Two working solutions were prepared at 150 ng/mL and 75 ng/mL, dissolved in 15% Ethanol/HBSS. Final concentrations were 7.50 ng/mL and 3.75 ng/mL.\nThe medium for the propagation of the colorectal adenocarcinoma (DLD-1) cells was DMEM, supplemented with penicillin-streptomycin solution (10 mL per litre). FBS was added just before use to give 10% w/v.\n• 1. The human colorectal adenocarcinoma cells (DLD-1) obtained from the American Type Culture Collection USA were revived from cryostorage. • 2. Following initial propagation using the media described above (see Medium Preparation), the culture was subcultured using the trypsin-EDTA as follows. The media was removed and 5 mL of the trypsin-EDTA solution added and incubated at 37° C. for 5 min or until all the cells had detached. The trypsin was neutralised by adding an equal volume of DMEM medium and the culture centrifuged at 300 g (1200 rpm) for 5 min at 4° C. • 3. The supernatant was decanted and the cell pellets resuspended in medium DMEM, FBS (10%), penicillin (100 units/mL), streptomycin (100 μg/mL). The cells were cultured at 37° C. in 5% CO2/95% air. • 4. After reaching confluence, the cells were detached using trypsin-EDTA and centrifuged as described in 2 above. • 5. The supernatants were discarded and the cells resuspended in DMEM and supplements as described in 3 above at 1.0×10^4 cells per mL. • 6. Into each well of three 96 well plates, 180 μl of the cells (1,800 cells/well) or medium was added. The plates were incubated at 5% CO2/95% air at 37° C. for 48 h which was sufficient to allow the cells to adhere. • 7. To each well, 20 μl of each, of the test samples or positive control was added. […]", "key": {"[1]": {"conditions": "Example 2, DLD-1, sample 200 μg/mL, 24 hours incubation"}}}
{"smiles": "O=c1[nH]cc(F)c(=O)[nH]1", "note": "[Sample 5-FU, 5-fluorouracil, reference compound]", "values": [{"measurement": "Mean OD (570 nm)", "setting": "Example 1, DLD-1, 5-FU 7.50 ng/ml", "value": 0.657}, {"measurement": "inhibition at 0.0075 µg/mL", "setting": "Homo sapiens, Example 1, DLD-1, 5-FU 7.50 ng/ml", "value": 6.69, "unit": "%"}]}
{"smiles": "O=C(O)/C=C/c1ccc(O)cc1", "note": "[p-coumaric acid, para-coumaric acid, reference compound]", "values": [{"measurement": "activity against DLD-1", "setting": "isolated from NZ propolis, data not shown in Example 2", "value": "inactive"}]}
{"smiles": "COc1cc(O)c2c(=O)cc(-c3ccccc3)oc2c1", "note": "[Tectochrysin, tectochrysin]", "values": [{"measurement": "% inhibition", "setting": "[1]", "value": 29.45, "unit": "%"}, {"measurement": "Mean OD (570 nm)", "setting": "[1]", "value": 0.2285}]}
{"smiles": "O=C1C[C@@H](c2ccccc2)Oc2cc(O)cc(O)c21", "note": "[Pinocembrin, reference compound]", "values": [{"measurement": "Mean OD (570 nm)", "setting": "[1]", "value": 0.0196}, {"measurement": "inhibition at 200 µg/mL", "setting": "Homo sapiens, Example 2, DLD-1, sample 200 μg/mL, 24 hours incubation", "value": 94, "unit": "%"}]}
